Values after ≈ are worked out from the molar mass of the structure shown. Read-outs that look alike come from different tables or passages of the source. Starred links: 1 amine or outer side, 2 acyl side, 3 side chain; linkers in the order of their positions; H or OH if unused. Non-standard residues stand in square brackets, D forms with d. Residues, ends and D or L forms follow the SMILES beside them. Groups on a side chain read outwards from the residue. *: point of attachment. C18 diacid = O=C(O)CCCCCCCCCCCCCCCCC(=O)*; γGlu = O=C(O)[C@H](CCC(=O)[*:2])N[*:1]; AEEA = NCCOCCOCC(=O)O; Aib = CC(C)(N)C(=O)O
Legend:
[1] = Solubility (RP-HPLC and HPLC-SEC, 1 week at 4° C.); type: physicochemical
Method: Solubility of compounds of the present invention is measured in an Agilent 1100 HPLC, an Agilent 1200 HPLC and a Nanodrop 2000. The following HPLC columns are used:
(a) RP-HPLC: Waters Symmetry Shield C18, 3.6 um, 4.6×100 mm
(b) HPLC-SEC: Tosoh Biosciences, TSK2000SWXL […]
All peptide concentrations are made at 10 mg/mL in the following:
(a) 10 mM Tris pH 8.0+3 mg/mL m-cresol
(b) 10 mM Tris pH 8.0+3 mg/mL m-cresol+150 mM NaCl
(c) 10 mM Tris pH 8.0+3 mg/mL m-cresol+0.02% Tween-20
5 mL of 10 mg/mL peptide dissolved in 10 mM Tris at pH 8.0 is concentrated to approximately 20 mg/mL using Amicon-ultra 3 kDa MWCO devices. The solution is filtered using Millivex 0.22 μM filters (PVDF membrane) and the final concentration is measured by the NanoDrop spectrometer. This stock solution is used to formulate to the final conditions stated above using 3× m-cresol, 10× NaCl, and 100× Tween-20 stock solutions. A 10 mg/mL PBS solution is also prepared by dissolving directly at 5 mg/mL and concentrating using Amicon-ultra 3 kDa MWCO devices.
Each solution is placed in a refrigerator at 4° C. for 1 week, with analysis by RP-HPLC to assess concentration and HPLC-SEC to assess HMW species formation. Analyses completed at T-0 week and T-1 week.
The solubility of Compounds 1-4 was measured essentially as described in this assay.

Human Gcg-R = molecular target: T1, Human Gcg-R (Homo sapiens, UniProt P47871); assay: Functional hGcg-R assay (cAMP HTRF, HEK-293 clonal cell line); type: cell-based
T1 construct: expressed in transfected cells; host or cells: HEK-293 clonal cell line over-expressing the receptor
T1 sequence (P47871 26-477): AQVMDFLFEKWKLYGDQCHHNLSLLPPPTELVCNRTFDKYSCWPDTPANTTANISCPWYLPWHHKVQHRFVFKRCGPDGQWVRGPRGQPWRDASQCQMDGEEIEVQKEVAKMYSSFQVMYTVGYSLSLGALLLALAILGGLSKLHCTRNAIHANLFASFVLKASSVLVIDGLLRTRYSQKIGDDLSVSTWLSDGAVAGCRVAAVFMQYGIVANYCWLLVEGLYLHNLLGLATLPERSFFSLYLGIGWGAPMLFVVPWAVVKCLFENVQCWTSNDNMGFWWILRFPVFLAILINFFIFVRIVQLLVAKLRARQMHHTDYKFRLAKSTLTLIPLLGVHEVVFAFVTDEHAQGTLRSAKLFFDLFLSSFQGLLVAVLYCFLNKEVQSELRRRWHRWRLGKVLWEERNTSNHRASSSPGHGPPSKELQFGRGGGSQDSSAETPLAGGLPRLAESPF
Method: After a 60 minute incubation at room temperature, the resulting increase in intracellular cAMP (adenosine 3′,5′-cyclic monophosphate) is quantitatively determined using the CisBio cAMP Dynamic 2 HTRF Assay Kit (62AM4PEJ). cAMP levels within the cell are detected by adding the cAMP-d2 conjugate in cell lysis buffer (20 μl) followed by the antibody anti-cAMP-Eu^3+-Cryptate, also in cell lysis buffer (20 μl).
A relative EC50 value and percent top (Emax) are derived by non-linear regression analysis using the percent maximal response vs. the concentration of peptide added, fitted to a four-parameter logistic equation (Genedata Screener®).
Means for EC50 are expressed as Geometric means±standard error of the mean (SEM) with the number of replicates (n) indicated in parenthesis. Means for Emax are expressed as the arithmetic mean±standard error. ND signifies that agonist activity was not detected.

Compound CC(C)C[C@H](NC(=O)[C@H](CC(C)C)NC(=O)[C@H](Cc1c[nH]c2ccccc12)NC(=O)[C@H](CCC(=O)O)NC(=O)[C@@H](NC(=O)[C@H](Cc1ccccc1)NC(=O)[C@H](CCC(=O)O)NC(=O)[C@H](CCCCNC(=O)COCCOCCNC(=O)COCCOCCNC(=O)CC[C@H](NC(=O)CC[C@H](NC(=O)CCCCCCCCCCCCCCCCC(=O)O)C(=O)O)C(=O)O)NC(=O)[C@H](C)NC(=O)[C@H](CCCCN)NC(=O)[C@H](CCCCN)NC(=O)[C@H](CCC(=O)O)NC(=O)[C@H](CC(=O)O)NC(=O)[C@H](CC(C)C)NC(=O)[C@H](Cc1ccc(O)cc1)NC(=O)[C@H](CCCCN)NC(=O)[C@H](CO)NC(=O)[C@H](Cc1ccc(O)cc1)NC(=O)[C@H](CC(=O)O)NC(=O)[C@H](CO)NC(=O)[C@@H](NC(=O)[C@H](Cc1ccccc1)NC(=O)[C@@H](NC(=O)CNC(=O)[C@H](CCC(N)=O)NC(=O)C(C)(C)NC(=O)[C@@H](N)Cc1c[nH]cn1)[C@@H](C)O)[C@@H](C)O)C(C)C)C(=O)N[C@@H](CO)C(=O)NCC(=O)NCC(=O)N1CCC[C@H]1C(=O)N[C@@H](CO)C(=O)N[C@@H](CO)C(=O)NCC(N)=O [Compound 3] (H-H[Aib]QGTFTSDYSKYLDEKKAK([AEEA-AEEA-γGlu-γGlu-C18 diacid])EFVEWLLSGGPSSG-NH2; N-terminus assumed) has a solubility at 1 week ([1]; 10 mM Tris pH 8.0 + 3 mg/mL m-cresol + 0.02% Tween-20, Tris pH 8 + 3 mg/mL m-cresol + 0.02% Tween-20) of 10000 µg/mL, a solubility at 1 week ([1]; 10 mM Tris pH 8.0 + 3 mg/mL m-cresol + 150 mM NaCl, Tris pH 8 + 3 mg/mL m-cresol + 150 mm NaCl) of 10000 µg/mL and a solubility at 1 week ([1]; 10 mM Tris pH 8.0 + 3 mg/mL m-cresol, Tris pH 8 + 3 mg/mL m-cresol) of 10000 µg/mL. The “HMW species formation by SEC-HPLC” value ([1]; 1 week at 4° C.) was “No observed HMW species formation by SEC-HPLC;”, the solubility at 1 week ([1]; PBS pH 7.4, pH 7.4, read-out: solubility in PBS, pH 7.4) was 10000 µg/mL (≈ 2160 µM) and the “visible precipitation or phase separation” value ([1]; after 1 week storage at 4° C.) was “No visible precipitation or phase separation observed after 1 week”. For the same compound, the Emax (Human Gcg-R; HEK293) was 104 ± 5% and the EC50 (Human Gcg-R; cAMP, 60 minute incubation, 0.25% FBS, 0.05% BSA, geometric mean, read-out: Human Gcg-R EC50, nM ± SEM, (n)) was 15.3 ± 2.2 nM.

From patent US9938335B2, “Glucagon and GLP-1 co-agonist compounds” (Eli Lilly and Company, priority 2015, dated 2018)
